Results: ChEMBL document CHEMBL3352611, “Deconstruction of 6,7-dimethoxy-1,2,3,4-tetrahydroisoquinoline moiety to separate P-glycoprotein (P-gp) activity from σ2 receptor affinity in mixed P-gp/σ2 receptor agents” (Eur J Med Chem, 2015)

Assays:
[1] = Selectivity index, ratio of Ki for sigma1 recetor in guinea-pig brain membranes to Ki for sigma2 receptor in rat liver membranes; format: cell membranes
[2] = target: Sigma non-opioid intracellular receptor 1 (Cavia porcellus, UniProt Q60492); assay: Displacement of (+)-[3H]-pentazocine from sigma1 recetor in guinea-pig brain membranes without cerebellum by radioligand binding assay; format: cell membranes, Membrane
[3] = target: ATP-dependent translocase ABCB1 (Homo sapiens, UniProt P08183); assay: Activity at MDR1 (unknown origin) expressed in MDCK-MDR1 cells by Calcein-AM assay; format: cell-based
[4] = Displacement of [3H]-DTG from sigma2 receptor in rat liver membranes in presence of […] (+)-pentazocine by radioligand binding assay; format: cell membranes, Membrane
[5] = target: Sigma non-opioid intracellular receptor 1 (Cavia porcellus) (UniProt Q60492); conditions: Brain, Membrane, 10 pM
Chain of Sigma non-opioid intracellular receptor 1 (Cavia porcellus) (Q60492 whole entry): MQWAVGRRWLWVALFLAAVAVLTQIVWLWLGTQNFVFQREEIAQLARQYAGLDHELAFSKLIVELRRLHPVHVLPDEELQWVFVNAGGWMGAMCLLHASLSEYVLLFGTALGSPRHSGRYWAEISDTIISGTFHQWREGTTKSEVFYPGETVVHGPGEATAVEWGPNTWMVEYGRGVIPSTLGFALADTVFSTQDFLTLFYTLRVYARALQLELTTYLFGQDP

Chain of ATP-dependent translocase ABCB1 (P08183 whole entry): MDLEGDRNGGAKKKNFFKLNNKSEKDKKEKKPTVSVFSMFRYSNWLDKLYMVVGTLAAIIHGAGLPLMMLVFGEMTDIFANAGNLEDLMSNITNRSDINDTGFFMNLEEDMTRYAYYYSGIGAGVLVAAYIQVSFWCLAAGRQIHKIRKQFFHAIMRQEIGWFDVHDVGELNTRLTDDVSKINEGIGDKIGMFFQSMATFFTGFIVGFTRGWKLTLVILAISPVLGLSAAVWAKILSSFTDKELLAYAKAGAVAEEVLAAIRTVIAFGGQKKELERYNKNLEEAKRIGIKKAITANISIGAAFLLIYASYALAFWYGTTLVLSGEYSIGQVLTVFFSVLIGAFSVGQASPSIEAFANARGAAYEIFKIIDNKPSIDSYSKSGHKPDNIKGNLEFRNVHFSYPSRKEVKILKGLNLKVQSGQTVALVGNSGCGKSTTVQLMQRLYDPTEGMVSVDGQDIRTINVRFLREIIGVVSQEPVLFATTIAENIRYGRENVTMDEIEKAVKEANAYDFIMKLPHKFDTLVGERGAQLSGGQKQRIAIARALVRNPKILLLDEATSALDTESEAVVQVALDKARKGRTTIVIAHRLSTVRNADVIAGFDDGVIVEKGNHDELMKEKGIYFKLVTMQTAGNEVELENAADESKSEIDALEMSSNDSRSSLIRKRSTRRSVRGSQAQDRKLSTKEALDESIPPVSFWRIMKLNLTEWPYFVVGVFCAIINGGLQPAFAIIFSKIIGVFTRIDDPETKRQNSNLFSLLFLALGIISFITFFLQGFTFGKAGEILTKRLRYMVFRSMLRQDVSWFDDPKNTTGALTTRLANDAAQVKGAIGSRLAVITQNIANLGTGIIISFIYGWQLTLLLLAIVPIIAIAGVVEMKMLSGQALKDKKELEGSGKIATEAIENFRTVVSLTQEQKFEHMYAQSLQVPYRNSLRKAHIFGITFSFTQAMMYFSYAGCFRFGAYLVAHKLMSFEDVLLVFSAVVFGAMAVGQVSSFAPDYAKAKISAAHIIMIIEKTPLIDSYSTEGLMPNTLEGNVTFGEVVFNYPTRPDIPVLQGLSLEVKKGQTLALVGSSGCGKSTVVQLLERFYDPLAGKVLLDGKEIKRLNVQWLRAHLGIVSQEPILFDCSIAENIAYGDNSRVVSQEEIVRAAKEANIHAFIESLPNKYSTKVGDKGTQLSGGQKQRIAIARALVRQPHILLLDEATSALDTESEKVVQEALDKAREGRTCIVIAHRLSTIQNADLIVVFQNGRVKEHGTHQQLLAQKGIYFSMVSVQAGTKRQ
Chain of Sigma non-opioid intracellular receptor 1 (Q60492 whole entry): as the sequence (Q60492 whole entry) above

| Compound | Ratio Ki [1] | Ki [2] | EC50 [3] | Ki [4] | inhibition [5] |
| --- | --- | --- | --- | --- | --- |
| COc1ccc(CCNCCCCc2cn(-c3ccc(F)cc3)c3ccccc23)cc1 | 0.3 | 431 nM | 2850 nM | 1400 nM | – |
| COc1ccc2c(c1OC)CCC2NCCCCc1cn(-c2ccc(F)cc2)c2ccccc12 (racemic) | 1.87 | 215 nM | 870 nM | 115 nM | – |
| COc1ccc(CCN(C)CCCCc2cn(-c3ccc(F)cc3)c3ccccc23)cc1 | 0.2 | 67.4 nM | 4490 nM | 334 nM | – |
| COc1ccc(CCNCCCCc2cn(-c3ccc(F)cc3)c3ccccc23)cc1OC | 0.45 | 939 nM | 1120 nM | 2100 nM | – |
| COc1ccc2c(c1OC)CC[C@H]2NCCCCc1cn(-c2ccc(F)cc2)c2ccccc12 | 0.69 | 175 nM | 3450 nM | 252 nM | – |
| CCN(CCCCc1cn(-c2ccc(F)cc2)c2ccccc12)[C@H]1CCc2c1ccc(OC)c2OC | 2.67 | 50.8 nM | 700 nM | 19 nM | – |
| CCN(CCCCc1cn(-c2ccc(F)cc2)c2ccccc12)[C@@H]1CCc2c1ccc(OC)c2OC | 3.58 | 126 nM | 1740 nM | 35.2 nM | – |
| COc1cccc(CCNCCCCc2cn(-c3ccc(F)cc3)c3ccccc23)c1 | 0.26 | 151 nM | 7200 nM | 580 nM | – |
| COc1ccc(CNCCCCc2cn(-c3ccc(F)cc3)c3ccccc23)cc1 | 0.56 | 129 nM | 7660 nM | 231 nM | – |
| CCN(CCCCc1cn(-c2ccc(F)cc2)c2ccccc12)Cc1ccc(OC)c(OC)c1 | 0.19 | 18.9 nM | 1790 nM | 97.1 nM | 85% |
| COc1cccc(CCN(C)CCCCc2cn(-c3ccc(F)cc3)c3ccccc23)c1 | 0.16 | 17.5 nM | 6570 nM | 111 nM | – |
| CCN(CCCCc1cn(-c2ccc(F)cc2)c2ccccc12)C1CCc2c1ccc(OC)c2OC (racemic) | 2.14 | 59.2 nM | 960 nM | 27.6 nM | – |
| COc1ccc(CNCCCCc2cn(-c3ccc(F)cc3)c3ccccc23)cc1OC | 16 | 2700 nM | 1040 nM | 169 nM | – |
| COc1cc2c(cc1OC)CN(CC/C=C1\CCCc3c(OC)cccc31)CC2 | – | – | 820 nM | – | – |
| COc1ccc2c(c1OC)CC[C@@H]2NCCCCc1cn(-c2ccc(F)cc2)c2ccccc12 | 0.8 | 122 nM | 1340 nM | 152 nM | – |
| COc1cccc(CNCCCCc2cn(-c3ccc(F)cc3)c3ccccc23)c1 | 2.4 | 544 nM | 2950 nM | 227 nM | – |
| CCN(CCCCc1cn(-c2ccc(F)cc2)c2ccccc12)Cc1cccc(OC)c1 | 0.03 | 2.44 nM | 4580 nM | 91 nM | – |
| CCN(CCCCc1cn(-c2ccc(F)cc2)c2ccccc12)Cc1ccc(OC)cc1 | – | – | 4680 nM | 69.8 nM | – |
| COc1cc2c(cc1OC)CN(CCCCc1cn(-c3ccc(F)cc3)c3ccccc13)CC2 | 260 | – | 210 nM | 5.34 nM | – |
| COc1ccc(CCN(C)CCCCc2cn(-c3ccc(F)cc3)c3ccccc23)cc1OC | 0.97 | 337 nM | 1350 nM | 346 nM | – |
